Source: patent publication US6005008A, “IL-8 receptor antagonists” (SmithKline Beecham Corporation, priority 1997, dated 1999)

Biological target: T1, recombinant IL-8 Rβ, or Type II, receptor (Homo sapiens, UniProt P25025)
T1 sequence (P25025 1-360): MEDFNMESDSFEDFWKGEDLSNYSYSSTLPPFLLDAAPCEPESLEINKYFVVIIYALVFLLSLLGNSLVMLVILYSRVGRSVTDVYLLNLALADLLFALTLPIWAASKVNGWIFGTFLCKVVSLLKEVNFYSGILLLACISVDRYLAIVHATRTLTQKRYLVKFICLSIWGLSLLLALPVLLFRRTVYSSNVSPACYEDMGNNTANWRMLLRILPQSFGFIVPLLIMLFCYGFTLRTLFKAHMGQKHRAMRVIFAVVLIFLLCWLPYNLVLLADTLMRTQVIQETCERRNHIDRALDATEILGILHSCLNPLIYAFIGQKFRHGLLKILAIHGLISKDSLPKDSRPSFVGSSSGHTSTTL
Assay: Receptor binding assay, 125I IL-8, IL-8Rβ CHO membranes (permissive model)
Text: [^125 I] IL-8 (human recombinant) was obtained from Amersham Corp., Arlington Heights, Ill., with specific activity 2000 Ci/mmol. Gro-α was obtained from NEN-New England Nuclear. All other chemicals were of analytical grade. High levels of recombinant human IL-8 type α and β receptors were individually expressed in Chinese hamster ovary cells as described previously (Holmes, et al., Science, 1991, 253, 1278). The Chinese hamster ovary membranes were homogenized according to a previously described protocol (Haour, et al., J Biol Chem., 249 pp 2195-2205 (1974)). Except that the homogenization buffer was changed to 10 mM Tris-HCL, 1 mM MgS04, 0.5 mM EDTA (ethylene-diaminetetra-acetic acid), 1 mMPMSF (α-toluenesulphonyl fluoride), 0.5 mg/L Leupeptin, pH 7.5. Membrane protein concentration was determined using Pierce Co. micro-assay kit using bovine serum albumin as a standard. All assays were performed in a 96-well micro plate format. Each reaction mixture contained ^125 I IL-8 (0.25 nM) or ^125 I Gro-α and 0.5 μg/mL of IL-8Rα or 1.0 μg/mL or IL-8Rβ membranes in 20 mM Bis-Trispropane and 0.4 mM Tris HCl buffers, pH 8.0, containing 1.2 mM MgSO4, 0.1 mM EDTA, 25 mM NaCl and 0.03% CHAPS. […] The filter was then dried and counted on the Betaplate liquid scintillation counter. […]

found to be active at (IL-8 receptor inhibition): about 75 μg/mL
Structure (SMILES): Cc1cc(Cl)ccc1NC(=O)Nc1ccccc1C(=O)O [1-(2-Carboxyphenyl)-3-(4-chloro-2-methylphenyl)urea]
